{
  "source": "patent US20240009231A1",
  "about": "“Method for Pleurodesis and Delivery of Drugs to the Lung and Pleural Space” (University of Cincinnati, priority 2020, published 2024)",
  "key": {"[1]": {"system": "lungs of mice", "settings": "mouse, in vivo"}, "[2]": {"system": "C57BL/6J mice", "settings": "mouse, in vivo", "procedure": "Either hydroxyapatite microspheres (HAMs, Fluidinova) or talc was injected via the intrapleural (i.pl.) route into C57BL/6J mice. For the mice injected with HAMs, 4 mg/g mouse of HAM/300 μL saline/mice was used. For the mice injected with talc, 2 mg/g mouse of talc/300 μL saline/mice was used. The mice were euthanized at day 0, day 7, day 14 or day 28 and post-mortem assessments were performed. Effectiveness of pleurodesis was assessed by introducing air into the pleural space. Each lung was punctured percutaneously with a 20 G needle for 12 times for left and right lung (total 24 times) (transthoracic needle puncture). Then, a CT scan was taken to measure the volume of pneumothorax air space in the thoracic cavity (see FIGS. 1A and 1B).\nIn addition, paraffin-embedded lung sections were stained with H&E and Mason's trichrome reagent for microscopic evaluation of pleural fibrosis and pleural thickness. Clearance of particles was assessed by microCT (see FIGS. 2A and 2B). Macroscopic pleural adhesions were scored (see FIGS. 3A, 3B and 3C); pleural lavage cells were collected to assess OLMNGC (osteoclast-like multinucleated giant cells) formation, including cytology, fibrosis- and osteoclast-related gene and protein expression of tartrate-resistant acid phosphatase (TRAP), (CTSK), and calcitonin receptor (Calcr) antibody by rtPCR and immunohistochemistry"}},
  "data": [
    {"substance": "hydroxyapatite [HAMs]", "values": [
      {"measurement": "lung inflammation", "setting": "[1]", "value": "transient monocyte rich inflammation"},
      {"measurement": "pulmonary fibrosis", "setting": "[1]", "value": "no residual fibrosis"},
      {"measurement": "clearance of particles from the lungs", "setting": "[1]; inhaled or intranasal", "value": "cleared within a month"},
      {"measurement": "amount of residual particles in the thoracic cavity", "setting": "[2]", "value": "decreased over time"},
      {"measurement": "clearance of particles", "setting": "[2]", "value": "almost completely cleared"}
    ]}
  ]
}
